Patent US20170209579A1, “NON-INVASIVE RADIOFREQUENCY FIELD TREATMENT FOR CANCER THERAPY” (Baylor College of Medicine, priority 2014, published 2017)

How the values were obtained:
[1] = tested on: Mre11; test: Colocalization of Mre11 with γ-H2AX foci at gemcitabine-stalled replication forks; type: cell-based, human; conditions: Hep3B
Text: FIGS. 15A-15D provide inhibition of Mre11 and Rad51 recruitment at gemcitabine-stalled replication forks by hyperthermia. (15A) Hep3B cells were exposed to hyperthermia and/or gemcitabine. (15B) and (15C) Mre11 and Rad51 were recruited at gemcitabine-stalled replication forks. […] Scale bar=10 μm. (15D) Quantification of data from colocalization experiments. Data are mean Pearson correlation (a.u.) and error bars represent the SD from three independent experiments with 10 replicates each (*P<0.05, **P<0.01). Gem=Gemcitabine; HT=Hyperthermia; N/A=not applicable, i.e., in hyperthermia treated cells BrdU staining is not detected as distinct foci and therefore correlation could not be quantified; ns=not significant, by the Student unpaired two-sided t test in comparison with gemcitabine alone group. Also, see FIGS. 22-24. […]
For immunocytochemistry assay, an indirect immunofluorescence approach was used. […] Cells from an exponentially growing culture were counted and approximately 50,000 cells were seeded in each well of a 12-well plate. […]
The slides were sealed with a conventional nail polish hardener and stored at 4° C. until imaging. […] Exposure settings were set to maximize dynamic range initially and then kept constant across multiple samples to allow quantitative comparisons. […]

[2] = tested on: Hep3B cells; test: Cell cycle analysis (BrdU flow cytometry) in Hep3B cells; type: cell-based, human
Protocol: For cell cycle analysis a BrdU-labeling protocol from BrdU Flow Kit (BD Pharmingen, San Diego, Calif.) was used according to the supplied instructions. Data was analyzed using FlowJo 7.63 (Tree Star, Inc., Ashland, Oreg.). For cell cycle analysis, a BrdU-labeling protocol was used to identify cells in S-phase of the cell cycle accurately. Cells were harvested from an exponentially growing culture as described for other experiments and seeded in 6-well plates, approximately 150,000 cells per well. After 24-hours adherent sub-confluent monolayers were noted and cells were exposed to various experimental conditions. At the end of the treatments, cells were washed and sampled at various time points to study the progression of the cell cycle in time. One hour before each time point, cells were pulsed with BrdU (10 μM) for 1 hour. BrdU gets incorporated in the DNA of cells in S-phase along with other nucleotides and can be detected using a mouse FITC conjugated anti-BrdU antibody. A BrdU Flow Kit (BD Pharmingen, San Diego, Calif.) was used according to the supplied instructions without modifications. For counterstaining of DNA content, cells were incubated with 7-amino-actinomycin D (7-AAD) supplied with the kit, on ice for 20 minutes before analysis on a BD LSR II flowcytometer (BD biosciences San Jose, Calif.). Single cell populations were identified using forward and side-scatter profiles. A total of 10,000 events were recorded from a gated single cell population. For 7-AAD fluorescence measurements, a SORP YG laser (561 nm) was used to excite the cells and emission was recorded through a 630LP filter followed by a 660/20 filter. For FITC fluorescence measurements, a SORP blue laser (488 nm) was used to excite the cells and emission was recorded through 505LP filter followed by a 525/50 filter. There was no spectral over-lap between the two emission spectra and compensation was not required. Data was analyzed using FlowJo 7.63 (Tree Star, Inc., Ashland, Oreg.). […] Cell cycle progression was analyzed over time (FIGS. 16 and 17). […]

## Nc1ccn([C@@H]2O[C@H](CO)[C@@H](O)C2(F)F)c(=O)n1 [gemcitabine, 2′,2′-difluoro 2′-deoxycytidine]
[1]; gemcitabine alone (10 μg/ml)
  mean Pearson correlation, Mre11 with γ-H2AX foci: 0.37
[1]; hyperthermia 42.5° C. 75 minutes then gemcitabine 10 μg/ml
  mean Pearson correlation, Mre11 with γ-H2AX foci: 0.23
[2]; 1 μM 24 hours, last two hours at 42.5° C.
  cell cycle progression, gemcitabine followed by hyperthermia compared with gemcitabine alone: much slower progression through late-S and G2/M phases
[2]; 1 μM gemcitabine, 24-hour incubation
  cell cycle progression: completely halts cell cycle progression
[2]; after 24 hours 1 μM gemcitabine
  cell cycle recovery once gemcitabine is removed: cells resume synchronized DNA synthesis in 24 hours
